Reference: patent US11369665B2, “Anti-inflammatory peptides and composition comprising the same” (GemVax & KAEL Co., Ltd., priority 2012, dated 2022)

Columns and labels:
TNF-α = TNF-α ELISA in LPS-stimulated PBMC-derived monocytes; assay type: cell-based, human; conditions: LPS 10 ng/ml 2 hrs, starved 1 hr, 4 uM for 2 hrs, ELISA of culture medium
Description: PBMC (peripheral blood mononuclear cell) was separated from the blood samples (50 ml) collected from healthy subjects using Ficoll-Paque™ PLUS (CYTIVA™, Piscataway, N.J., USA). PBMCs were then enriched in complete RPMI 1640 medium containing 20% of human serum, followed by transferring to 100 mm polystyrene cell culture plate coated with human serum for 30 mins. […]
To see the effect of PEP-1 on TNF-α level in terms of protein expression level. […] After culturing, cell soup was collected, and the amount of TNF-α was measured using ELISA kit (R&D, Minneapolis, Minn., USA) as follows:
TNF measurement uses sandwich ELISA method. […] Again, plate was washed, and avidin/biotin was added for measuring the absorbance. TNF-α level of each sample was quantified using the standard graph calculated from the absorbance of standard solution.
PBMC-derived monocytes were stimulated with endotoxin LPS (10 ng/ml) for 2 hrs, starved for 1 hr using OPTI-MEM®, and then 4 uM of FITC, FITC-TAT, PEP 1-FITC and FITC-PEP 1 were treated for 2 hrs. After incubation, TNF-α level was measured with cell culture medium using ELISA.

neural stem cells = assay: Amyloid-β toxicity assessment on neural stem cells; assay type: cell-based, rat; conditions: 20 μM amyloid-β protein, 48 hours
Description: After removing the cortex from the head of an embryonic rat that had been pregnant for 13 days, it was cultured for a week with Basic Fibroblast Growth Factor (bFGF) to obtain the neural stem cells. To analyze the effects of the amyloid-β protein on the neural stem cells, the pre-oligomerized amyloid-β protein of concentrations 0 to 40 μM was treated on neural stem cells for 48 hours, then CCK-8 assay, BrdU, and TUNEL assay were used for cytotoxicity assessment (refer from BA Yankner et al, 1990 and K N Dahlgren et al, 2002).

GADD 153 = assay: 2D-electrophoresis protein expression in neural stem cells; assay type: cell-based, rat; conditions: 20 ug β-amyloid treated group, versus negative control 1.0
Description: (§1) Protein expression level of PEP-1 treated group and untreated group was analyzed by 2D-electrophoresis technique and antibody microarray technique. Prepared 200 μg by extracting proteome from the neural stem cells cultured in Experiment 3-1 of Example 3. In addition, the group in which PEP-1 was not treated was used as the comparison group in the same condition.
(§2) 2D-electrophoresis was performed using 12% acrylamide gels. First gel electrophoresis was performed at PI 4˜10 N, using a gel size of 8.5×7 cm. After electrophoresis, it was dyed with Colloidal Coomassie Blue, and then compared expression by using PDQuest software to analyze each spot.
(§3) Difference in the expression levels of more than 1.5 times was identified using MALDI-TOF MS (Matrix Desorption/Ionization Time of Flight Mass Spectromestry). Among these, proteins correlated with inflammation-related signaling, such as i-NOS and HMGB-1 were identified (Refer to Table 6). The changes in protein expression levels either increased or decreased by 1.5 times by amyloid-β protein, but it was confirmed that expression level was regulated close to that of negative control when PEP-1 was added (Refer to FIGS. 14A-14B).
(§4) The Table 6 below is an analysis of expression levels of proteins associated with inflammation by 2D electrophoresis technique. The control group represents protein expression level of cells that were not treated with neither amyloid-β protein nor PEP-1.

HMGB1 = assay: as above; assay type: cell-based, rat; conditions: 20 ug β-amyloid treated group, versus negative control 1.0
Description: as §1, §2, §3, §4

HSP 70 = assay: as above; assay type: cell-based, rat; conditions: 20 ug β-amyloid treated group, versus negative control 1.0
Description: as §1, §2, §3, §4

HSP 90 = assay: as above; assay type: cell-based, rat; conditions: 20 ug β-amyloid treated group, versus negative control 1.0
Description: as §1, §2, §3, §4

MAP Kinase = assay: as above; assay type: cell-based, rat; conditions: 20 ug β-amyloid treated group, versus negative control 1.0
Description: as §1, §2, §3, §4

Pyk2 = assay: as above; assay type: cell-based, rat; conditions: 20 ug β-amyloid treated group, versus negative control 1.0
Description: as §1, §2, §3, §4

e-NOS = assay: as above; assay type: cell-based, rat; conditions: 20 ug β-amyloid treated group, versus negative control 1.0
Description: as §1, §2, §3, §4

i-NOS = assay: as above; assay type: cell-based, rat; conditions: 20 ug β-amyloid treated group, versus negative control 1.0
Description: as §1, §2, §3, §4

| Substance | TNF-α level (TNF-α) [ng/mL] | cell survival (neural stem cells) [%] | GADD 153 expression (fold) (GADD 153) | HMGB1 expression (fold) (HMGB1) | HSP 70 expression (fold) (HSP 70) | HSP 90 expression (fold) (HSP 90) | MAP Kinase expression (fold) (MAP Kinase) | Pyk2 expression (fold) (Pyk2) | e-NOS expression (fold) (e-NOS) | i-NOS expression (fold) (i-NOS) |
| --- | --- | --- | --- | --- | --- | --- | --- | --- | --- | --- |
| Fluorescein Isothiocyanate [FITC] | 6.2 |  |  |  |  |  |  |  |  |  |
| amyloid-β protein [reference compound] |  | 60 | 1.6 | −1.5 | −2.3 | −1.8 | 2.2 | 2.0 | 1.9 | 1.9 |
